Bounds are passed on as bounds.

The values that follow come from patent US20160362399A1, “ARYL, HETEROARYL, AND HETEROCYCLIC COMPOUNDS FOR TREATMENT OF COMPLEMENT MEDIATED DISORDERS” (Achillion Pharmaceuticals, Inc., priority 2014, published 2016).

The first experiment deals with T1, Human factor D (Homo sapiens, UniProt P00746).
T1 construct: purified from human serum; purchased Complement Technology, Inc; host or cells: human serum
T1 sequence (P00746 26-253): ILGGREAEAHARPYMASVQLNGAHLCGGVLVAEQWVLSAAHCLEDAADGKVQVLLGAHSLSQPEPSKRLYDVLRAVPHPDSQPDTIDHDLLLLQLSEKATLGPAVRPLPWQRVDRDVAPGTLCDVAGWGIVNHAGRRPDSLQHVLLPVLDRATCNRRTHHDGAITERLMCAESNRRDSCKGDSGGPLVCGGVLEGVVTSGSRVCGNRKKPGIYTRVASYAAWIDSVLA
The experiment is described as follows: Human Factor D Assay. The class given is biochemical.
Settings: not given
As for the experimental part: Other standard factor D inhibition assays are also available.
Human factor D (purified from human serum, Complement Technology, Inc.) at 80 nM final concentration is incubated with test compound at various concentrations for 5 minutes at room temperature in 50 mM Tris, 1M NaCl, pH 7.5. A synthetic substrate Z-L-Lys-SBzl and DTNB (Ellman's reagent) are added to final concentrations of 100 μM each. The increase in color is recorded at OD405 nm in a microplate in kinetic mode over 30 minutes with 30 second time points in a spectrofluorimeter. IC50 values are calculated by non-linear regression from the percentage of inhibition of complement factor D activity as a function of test compound concentration.
With `CC(=O)c1cn(CC(=O)N2C[C@H](F)C[C@H]2C(=O)Nc2cccc(-c3ccccc3Cl)c2F)c2ccc(C3=CCN(C(C)=O)CC3)cc12` [Compound 28, (2S,4R)-1-(2-(3-acetyl-5-(1-acetyl-1,2,3,6-tetrahydropyridin-4-yl)-1H-indol-1-yl)acetyl)-N-(2′-chloro-2-fluorobiphenyl-3-yl)-4-fluoropyrrolidine-2-carboxamide], the IC50 is < 1 µM.

For `NC(=O)c1nn(CC(=O)N2C[C@H](F)C[C@H]2C(=O)N[C@@H]2CCC[C@@H]2OCc2ccccc2)c2ccc(-c3ccnnc3)cc12` [Compound 51, 1-(2-((2S,4R)-2-((1R,2S)-2-(benzyloxy)cyclopentylcarbamoyl)-4-fluoropyrrolidin-1-yl)-2-oxoethyl)-5-(pyridazin-4-yl)-1H-indazole-3-carboxamide], the IC50 was > 10 µM.

The experiment is the same for the next values; noted with them: human factor D 80 nM, substrate Z-L-Lys-SBzl, assay of Example 7; read-out: IC50.
With `NC(=O)c1nn(CC(=O)N2C[C@H](F)C[C@H]2C(=O)Nc2ccccc2-c2nc3ccccc3s2)c2ccc(-c3ccnnc3)cc12` [Compound 41, 1-(2-((2S,4R)-2-(2-(benzo[d]thiazol-2-yl)phenylcarbamoyl)-4-fluoropyrrolidin-1-yl)-2-oxoethyl)-5-(pyridazin-4-yl)-1H-indazole-3-carboxamide], the IC50 is > 10 µM.

As to `COc1ncc(-c2ccc3c(c2)c(C(N)=O)nn3CC(=O)N2C[C@H](F)C[C@H]2C(=O)Nc2cccc(-c3ccccc3Cl)c2F)cn1` [Compound 29, 1-(2-((2S,4R)-2-(2′-chloro-2-fluorobiphenyl-3-ylcarbamoyl)-4-fluoropyrrolidin-1-yl)-2-oxoethyl)-5-(2-methoxypyrimidin-5-yl)-1H-indazole-3-carboxamide], the IC50 was < 1 µM.

On to `CC(=O)c1cn(CC(=O)N2[C@@H]3C[C@@H]3C[C@H]2C(=O)Nc2cccc(Br)n2)c2ccc(-c3cnc(C)nc3)cc12` [Compound 132, (1R,3S,5R)-2-(2-(3-acetyl-5-(2-methylpyrimidin-5-yl)-1H-indol-1-yl)acetyl)-N-(6-bromopyridin-2-yl)-2-azabicyclo[3.1.0]hexane-3-carboxamide], for which the IC50 is < 1 µM.

As for `Cc1nc2sccn2c1-c1csc(NC(=O)[C@@H]2C[C@@H](F)CN2C(=O)Cn2nc(C(N)=O)c3cc(-c4ccnnc4)ccc32)n1` [Compound 58, 1-(2-((2S,4R)-4-fluoro-2-(4-(6-methylimidazo[2,1-b]thiazol-5-yl)thiazol-2-ylcarbamoyl)pyrrolidin-1-yl)-2-oxoethyl)-5-(pyridazin-4-yl)-1H-indazole-3-carboxamide], the IC50 was > 10 µM.
